Data taken from publication PMC6010102, “N-thioalkylcarbazoles derivatives as new anti-proliferative agents: synthesis, characterisation and molecular mechanism evaluation” (Journal of Enzyme Inhibition and Medicinal Chemistry, 2018).

Key:
[1] = test system: MCF-7 human breast cancer cells; assay: MTT cell viability, MCF-7; format: cell-based; conditions: MCF7, 72 h exposure, mean ± SD, read-out: Antiproliferative activity IC50, MCF-7
From the text: (§1) The six cell lines used in this work were purchased from American Type Culture Collection (ATCC, Manassas, VA). MCF-7 human breast cancer cells, oestrogen receptor (ER) positives, were maintained in Dulbecco’s Modified Eagle’s Medium/Nutrient Mixture F-12 Ham (DMEM/F12), supplemented with 5% foetal bovine serum (FBS) and 100 U/ml penicillin/streptomycin, as previously described. MDA-MB-231, human breast cancer cells, oestrogen receptor (ER) negative, were maintained in Dulbecco’s Modified Eagle’s Medium/Nutrient Mixture F-12 Ham (DMEM/F12), supplemented with 5% Newborn Calf Serum (NCS) and 100 U/ml penicillin/streptomycin. HeLa human epithelial cervix carcinoma cells, oestrogen receptor (ER) negative, and ISHIKAWA human endometrial adenocarcinoma cell, oestrogen receptor positive, were maintained in minimum essential medium (MEM), supplemented with 10% FBS, 100 U/ml penicillin/streptomycin and 1% non-essential amino acid. 3T3-L1 cells line of murine fibroblasts of embryonic type, were maintained in DMEM, supplemented with 10% NCS and 100 U/ml penicillin/streptomycin. MCF-10A human mammary epithelial cells were cultured in DMEM/F12 medium, supplemented with 5% horse serum (HS) (Eurobio, Les Ullis, Cedex, France), 100 U/ml penicillin/streptomycin, […] hydrocortisone, 20 ng/ml hEGF (human epidermal growth factor), 10 μg/ml insulin and […] cholera enterotoxin (Sigma-Aldrich, Milano, Italy). Cells were maintained at 37 °C in a humidified atmosphere of 95% air and 5% CO2 and periodically screened for contamination.
(§2) MDA-MB-231, MCF-7, HeLa and ISHIKAWA cells were grown in complete medium and, before being treated, they were serum deprived for 24 h, to allow cell cycle synchronisation. Then cells were grown in phenol red-free medium supplemented with 1% DCC (destran-coated charcoal treated) FBS, then treated with increasing concentrations (0.1, 1, 10, 20, 40, 100 µM) of each compound for 72 h. Compounds were dissolved in dimethylsulphoxide (DMSO) (Sigma, St. Louis, MO) and diluted in each cell medium. Untreated cells, used as a control, were added with DMSO alone (final concentration 0.1%). Cell viability was assessed using the 3-[4,5-dimethylthiazol-2-yl]-2,5-diphenyltetrazolium bromide reagent (MTT), according to the protocol from manufacturer (Sigma-Aldrich, Milan, Italy), as previously described[37] ^, [38]. For each sample, the mean absorbance, measured at 570 nm, was expressed as a percentage of the control and plotted versus drug concentration to determine for each cell line the IC50 values (namely, drugs concentrations able to reduce cell viability of 50% with respect to the control), using GraphPad Prism 5 Software (GraphPad Inc., San Diego, CA)[39]. Each experiment was carried out in quadruplicate. Standard deviations (SD) were shown.

[2] = test system: ISHIKAWA human endometrial adenocarcinoma cells; assay: MTT cell viability, ISHIKAWA; format: cell-based; conditions: 72 h exposure, mean ± SD, read-out: Antiproliferative activity IC50, ISHIKAWA
From the text: as §1, §2

[3] = test system: HeLa human epithelial cervix carcinoma cells; assay: MTT cell viability, HeLa; format: cell-based; conditions: 72 h exposure, mean ± SD, read-out: Antiproliferative activity IC50, HeLa
From the text: as §1, §2

[4] = test system: MCF-10A human mammary epithelial cells; assay: MTT cell viability, MCF-10A; format: cell-based; conditions: non-tumoural cells, 72 h exposure, mean ± SD, read-out: Antiproliferative activity IC50, MCF-10a
From the text: as §1, §2

hTopoII = hTopoII (Homo sapiens, UniProt P11388); assay: Human topoisomerase II decatenation assay; format: biochemical; conditions: 10 µM
hTopoII, sequence (P11388 whole entry): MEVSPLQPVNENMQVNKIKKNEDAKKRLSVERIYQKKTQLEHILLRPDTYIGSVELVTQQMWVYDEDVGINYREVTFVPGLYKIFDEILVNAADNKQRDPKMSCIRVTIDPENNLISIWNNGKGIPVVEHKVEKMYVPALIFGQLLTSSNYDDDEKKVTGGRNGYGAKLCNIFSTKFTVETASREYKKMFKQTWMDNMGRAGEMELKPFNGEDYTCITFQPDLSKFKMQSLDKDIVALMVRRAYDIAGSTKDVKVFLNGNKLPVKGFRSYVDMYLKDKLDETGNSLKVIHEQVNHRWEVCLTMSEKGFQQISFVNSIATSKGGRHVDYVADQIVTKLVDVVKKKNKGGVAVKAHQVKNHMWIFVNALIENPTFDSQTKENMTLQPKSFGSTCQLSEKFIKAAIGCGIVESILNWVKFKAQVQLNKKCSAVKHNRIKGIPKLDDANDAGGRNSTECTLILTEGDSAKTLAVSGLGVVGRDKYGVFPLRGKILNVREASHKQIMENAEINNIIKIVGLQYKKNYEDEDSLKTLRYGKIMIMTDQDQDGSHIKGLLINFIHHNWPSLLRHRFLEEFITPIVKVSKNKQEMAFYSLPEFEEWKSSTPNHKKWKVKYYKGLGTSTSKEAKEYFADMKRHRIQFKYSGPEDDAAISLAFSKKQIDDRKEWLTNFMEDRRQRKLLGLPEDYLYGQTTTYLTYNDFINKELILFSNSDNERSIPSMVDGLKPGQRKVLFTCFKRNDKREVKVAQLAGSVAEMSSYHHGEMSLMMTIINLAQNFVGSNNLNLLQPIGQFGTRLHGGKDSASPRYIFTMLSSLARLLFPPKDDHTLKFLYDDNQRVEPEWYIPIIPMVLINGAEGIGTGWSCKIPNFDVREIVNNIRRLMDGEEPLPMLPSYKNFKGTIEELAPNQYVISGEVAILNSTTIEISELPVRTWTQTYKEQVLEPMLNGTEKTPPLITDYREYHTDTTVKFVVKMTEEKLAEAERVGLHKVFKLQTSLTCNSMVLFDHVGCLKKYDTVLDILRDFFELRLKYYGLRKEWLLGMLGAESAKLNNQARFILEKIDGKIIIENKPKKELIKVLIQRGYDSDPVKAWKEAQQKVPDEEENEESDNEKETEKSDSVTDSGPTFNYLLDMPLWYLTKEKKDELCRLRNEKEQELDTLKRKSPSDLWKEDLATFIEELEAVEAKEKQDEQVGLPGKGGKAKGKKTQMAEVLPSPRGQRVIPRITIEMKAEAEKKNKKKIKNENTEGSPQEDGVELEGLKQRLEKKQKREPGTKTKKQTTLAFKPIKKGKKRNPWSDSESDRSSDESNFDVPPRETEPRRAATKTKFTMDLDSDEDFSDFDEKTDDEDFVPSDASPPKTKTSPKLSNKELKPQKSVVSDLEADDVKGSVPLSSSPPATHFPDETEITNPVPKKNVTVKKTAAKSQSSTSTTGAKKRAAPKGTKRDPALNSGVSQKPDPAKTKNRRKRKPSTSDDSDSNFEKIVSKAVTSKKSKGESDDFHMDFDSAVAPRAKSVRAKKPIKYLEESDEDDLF
Procedure: Human topoisomerase II decatenation assay: hTopoII decatenation assays were performed as reported in Iacopetta et al.[8].
Figure 2. hTopoII inhibition assay. kDNA was incubated with human Topoisomerase II in the absence (lane C, vehicle DMSO) or presence of compound 5c (lane 5c) or Ellipticine (lane E) at 10 and 50 µM, respectively. Lane K, kinetoplast DNA (kDNA).

caspase-9 = assay: Caspase-Glo assay, caspase-9; format: cell-based, human; conditions: HeLa cells, concentration equal to IC50, 24 h
Procedure: (§3) Caspases-3/7, -8 and -9 activities were measured with the Caspase-Glo Assay, according to the guidelines of manufacturer (Caspase-Glo® 3/7, 8 and 9 Assay Systems, Promega Corporation, Madison, WI) as described in Iacopetta et al.[43].

caspases 3 and 7 = assay: Caspase-Glo assay, caspases 3/7; format: cell-based, human; conditions: HeLa cells, concentration equal to IC50, 24 h
Procedure: as §3

Cytochrome c = Cytochrome c immunofluorescence in HeLa cells; format: cell-based, human; conditions: concentration equal to IC50, 24 h
Procedure: Cells were grown on glass coverslips in full media, then serum-deprived for 24 h and exposed to compound to test, at the indicated time. Then, they were PBS-washed, fixed with cold methanol (15 min/−20 °C) and washed three times (10 min/room temperature) with cold PBS containing 0.01% TritonX-100. After incubation (30 min/room temperature) with blocking solution (PBS, 2% BSA), they were incubated with primary antibody diluted in blocking solution (4 °C/overnight). The mouse anti-cytochrome c (556433) was purchased from BD Biosciences (Franklin Lakes, NJ) and used at 1:100 dilution. Coverslips were then washed three times with PBS, then fixed cells were incubated with the secondary antibody Alexa Fluor® 568 conjugate goat-anti-mouse (1:500, Thermo Fisher Scientific, Waltham, MA). Nuclei were stained using DAPI (Sigma-Aldrich, Milan, Italy) for 10 min at a concentration of 0.2 µg/mL then washed three times with PBS. Fluorescence was detected using a fluorescence microscope (Leica DM 6000 Leica, Frankfurt am Main, Germany). LASX software was used to acquire and process all images.

- IC50 [1]: 54.9 ± 1 µM
- IC50 [2]: 15.7 ± 0.95 µM
- IC50 [3]: 11.3 ± 0.63 µM
- hTopoII inhibition (kDNA decatenation) (hTopoII): able to inhibit hTopoII activity
SMILES: Cc1ccc(C)c2c1c1cc(Br)ccc1n2CCCCCCCS [5c, 7-(6-Bromo-1,4-dimethyl-9H-carbazol-9-yl)-heptane-1-thiol]
- IC50 [4]: > 100 µM
- caspase-9 activity (caspase-9): little, but significant, rise of caspase-9 activity
- caspases 3 and 7 activity (caspases 3 and 7): clear increase of caspases 3 and 7 activity
- Cytochrome c localisation (Cytochrome c): determines the release of Cytochrome c from mitochondria to the cytosol
